Results on five compounds are retold here after US12435083B2, “Cyclopropyl-(hetero)aryl-substituted ethylsulphonyl-pyridine derivatives” (BOEHRINGER INGELHEIM VETMEDICA GMBH, priority 2021, dated 2025).

Like-named read-outs stand apart in the source and are kept apart here. A value given as a limit tells only on which side of the number the result lay.

Assay [1] concerns adult Rhipicephalus sanguineus ticks. In words: Contact activity against adult Rhipicephalus sanguineus (coated vial, mortality at 48 h). The method in brief: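 Compound in acetone/0.02% Triton X-100 coated onto glass vial walls and cap filter paper; after drying, ten adult ticks added per vial. Held at 24° C, 95% relative humidity, 12 h light/dark cycle. Mortality scored visually at 48 hours; EC50 derived from a dose-response series.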

Assay [2] relates to adult Ctenocephalides felis fleas. In words: Ingestion activity (flea membrane feeding, blood feeding) against adult Ctenocephalides felis.
The subject of assay [3] is nymphs of Dermacentor variabilis ticks. In words: Oral rat-tick efficacy against nymphs of Dermacentor variabilis ticks. As to conditions: rats, oral gavage 10 mg/kg on Day 0, tick count on Day 3. Type of assay: in vivo. The method, then:
Example 10: Comparison of Oral Rat-Tick Efficacy Data for Selected Specific Compounds of Formula (I) Against Nymphs of Dermacentor variabilis Ticks
On Day −1, rats were sedated, fitted with an Elizabethan collar, and infested with approximately 35 nymphal stage D. variabilis ticks. On Day 0, each rat was treated via oral gavage with the appropriate formulation of placebo, positive control, or test compound at the appropriate dose. On Day 3, all rats were euthanized, and ticks were removed, counted, and disposed of. In Table 2 efficacy is expressed in % mortality compared to negative controls containing compound vehicle only.

Another assay relates to Aedes aegypti L1 larvae. In words: Activity against larvae of Aedes aegypti (L1 larvae, 384-well, image-based mortality). As to conditions: 48 h at 27° C., 384-well, read-out: EC50 (percentage of mortality, A. aegypti L1 larvae). How it is done:
Example 3: Screening Method to Test Activity of Compounds of Formula (I) Against Larvae of Aedes aegypti
Eight A. aegypti L1 larvae in a total volume of 64 μL water were added to 384-well microplates containing compounds formulated in 100% DMSO. The plates were incubated for 48 h at 27° C. Individual well images were acquired and analyzed using a pipeline to quantitatively assess the amount of larvae biomass accumulating at the bottom of the well. The efficacy of a compound at a given dose is expressed as “percentage of mortality” and determined by comparison to average biomass descriptors of positive and negative control wells containing 1.0 μM Fipronil or DMSO only, respectively. Dose response assay were conducted to determine an EC50 value.

Assay [4] has as its system adult Ctenocephalides felis fleas. In words: Contact activity against adult Ctenocephalides felis (treated surface, motility by machine vision, 24 h). As to conditions: treated surface, 24h, read-out: EC80 (% motility reduction, adult C. felis, contact). From the text: Example 7: Screening Method to Test Contact Activity of Compounds of Formula (I) Against Adult Ctenocephalides felis

In assay [5] the test system is Spodoptera litura 2nd-instar larvae. In words: Insecticidal test on Spodoptera litura (cabbage leaf dip). The conditions noted are these: foliar, 192 h, 8 days after inoculation, read-out: activity level (corrected mortality rate), Spodoptera litura. How it is done:
Example 11: Insecticidal Test on Spodoptera litura
The compounds of formula (I) of the present invention or salts thereof were separately dispersed in water and diluted to 500 ppm. Cabbage leaves were dipped in the dispersion for about 30 seconds. After air dried, the leaves were placed in a plastic Petri dish with a diameter of 9 cm and inoculated with ten 2nd-instar larvae of Spodoptera litura, after which the dish was closed and then allowed to stand in a room at 25° C. 8 days after the inoculation, the numbers of the dead and alive insects were counted. The corrected mortality rate was calculated according to the following formula and the insecticidal activity was evaluated according to the following criteria. Corrected mortality rate (%)=100×(Survival rate in an untreated plot−Survival rate in a treated plot)/Survival rate in an untreated plot • A: the corrected mortality rate is 100% • B: the corrected mortality rate is 90 to 99% • C: the corrected mortality rate is 80 to 89% • D: the corrected mortality rate is 50 to 79%

Another assay relates to Plutella xylostella. In words: Insecticidal test on Plutella xylostella (Chinese cabbage seedling dip). As to conditions: 144 h, 500 ppm, seedling dip, 6 days after dip treatment, read-out: activity level (corrected mortality rate), Plutella xylostella. An outline of the steps:
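Compounds dispersed in water at 500 ppm; Chinese cabbage seedlings bearing eggs laid by released adults over 2 days were dipped ~30 s, air-dried and kept at 25° C. Dead and live insects counted 6 days later; corrected mortality versus untreated plot scored A (100%), B (90–99%), C (80–89%), D (50–79%).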

Assay [6] relates to Laodelphax striatellus 3rd-instar nymphs. In words: Insecticidal test on Laodelphax striatellus (rice seedling dip). The conditions noted are these: 192 h, 500 ppm, seedling dip, 8 days after inoculation, read-out: activity level (corrected mortality rate), Laodelphax striatellus.
The next assay concerns Myzus persicae. In words: Insecticidal test on Myzus persicae (foliar application on potted Chinese cabbage). The conditions noted are these: 144 h, 500 ppm, foliar application, 6 days after application, read-out: control efficacy level (control rate), Myzus persicae.
The mark [7] stands for this setting: contact assay, >100 μM = not active at the top concentration, read-out: R. sanguineus contact activity EC50.

As to `CCS(=O)(=O)c1cc(-c2ccc(C3CC3)cc2)cnc1-c1nc2cc(C(F)(F)C(F)(F)F)cnc2n1C` [compound 44], the EC50 in [1] (setting [7]) lay within 10 to 100 µM. In addition, the “C. felis membrane feeding (ingestion/blood feeding) activity EC80” value in assay [2] (flea membrane feeding (ingestion, blood feeding) assay, EC80) lay in the range of 1 to 10 µM. In assay [3], the “Observed efficacy (% mortality compared to negative controls)” value is greater than 95%.
Turning to `CCS(=O)(=O)c1cc(-c2ccc(C3(C#N)CC3)cc2)cnc1-c1nc2cc(C(F)(F)F)cn(CC(F)F)c-2c1F` [compound 67], in assay [3], the “Observed efficacy (% mortality compared to negative controls)” value is listed as greater than 95%.
In the case of `CCS(=O)(=O)c1cc(-c2ccc(C3CC3)cc2)cnc1-c1nc2cc(C(F)(F)F)cnc2n1C` [Compound 41, 5-(4-cyclopropylphenyl)-3-(ethanesulfonyl)-2-[3-methyl-6-(trifluoromethyl)imidazo[4,5-b]pyridin-2-yl]pyridine], the EC50 in the assay with Aedes aegypti L1 larvae is less than 0.04 µM. The EC80 in [4] fell in the range of 1 to 10 µM. The mortality at 500 ppm (in assay [5]; in the assay with Plutella xylostella; in assay [6]) was 100% each time. Moreover, the pest or weed control at 500 ppm in the assay on Myzus persicae stood at 100%.
For `CCS(=O)(=O)c1cc(-c2ccc(C3(C#N)CC3)cc2)cnc1-c1nc2cc(C(F)(F)C(F)(F)F)ncc2n1C` [Compound 115, 1-[4-[5-(ethanesulfonyl)-6-[3-methyl-6-(1,1,2,2,2-pentafluoroethyl)imidazo[4,5-c]pyridin-2-yl]pyridin-3-yl]phenyl]cyclopropane-1-carbonitrile], the EC50 is less than 0.04 µM in the assay on Aedes aegypti L1 larvae; 10 to 100 µM in assay [1] (Rhipicephalus sanguineus, 48 hours post-treatment, coated vial, read-out: EC50 (percentage mortality, adult R. sanguineus, contact)); 10 to 100 µM in assay [1] (Rhipicephalus sanguineus, contact assay, >100 μM = not active at the top concentration, read-out: R. sanguineus contact activity EC50). The EC80 was less than 1 µM in assay [2] (Ctenocephalides felis, 24 h, flea membrane feeding (ingestion, blood feeding) assay, EC80, read-out: C. felis membrane feeding (ingestion/blood feeding) activity EC80); less than 1 µM in [2] (Ctenocephalides felis, bovine blood, 24h post treatment, read-out: EC80 (% motility reduction, adult C. felis, ingestion via membrane feeding)); less than 1 µM in [4]. For the same compound, the mortality at 500 ppm (in assay [5]; in the assay on Plutella xylostella; in assay [6]) was 100% in each case. For the same compound, in the assay with Myzus persicae, the pest or weed control at 500 ppm is 100%.
Turning to `CCS(=O)(=O)c1cc(-c2ccc(C3(F)CC3)cc2)cnc1-c1nc2cc(C(F)(F)C(F)(F)F)nnc2n1C` [compound 19], the EC50 in [1] (setting [7]) was 10 to 100 µM. Moreover, in [2] (flea membrane feeding (ingestion, blood feeding) assay, EC80, read-out: C. felis membrane feeding (ingestion/blood feeding) activity EC80), the EC80 is less than 1 µM. Moreover, the “Observed efficacy (% mortality compared to negative controls)” value in [3] is reported as greater than 95%.

As a reminder, the EC50 is the concentration that produces a half-maximal response. What is called mortality is the percentage killed.
